Source: publication PMC10692477 (Acta Pharmaceutica Sinica. B, 2023)
Where “and” joins values, the source holds several entries; their conditions need not be identical. Equal entries are not always repeated.

Tests used:
AXL kinase = target: T1, AXL kinase (Homo sapiens, UniProt P30530); experiment: AXL kinase inhibition, ELISA; format: biochemical; conditions: for inhibition at 0.1 µM: read-out: inhibition rate AXL kinase; for IC50: IC50 AXL kinase, ELISA, mean ± SD of two independent experiments
T1 sequence (P30530 26-894): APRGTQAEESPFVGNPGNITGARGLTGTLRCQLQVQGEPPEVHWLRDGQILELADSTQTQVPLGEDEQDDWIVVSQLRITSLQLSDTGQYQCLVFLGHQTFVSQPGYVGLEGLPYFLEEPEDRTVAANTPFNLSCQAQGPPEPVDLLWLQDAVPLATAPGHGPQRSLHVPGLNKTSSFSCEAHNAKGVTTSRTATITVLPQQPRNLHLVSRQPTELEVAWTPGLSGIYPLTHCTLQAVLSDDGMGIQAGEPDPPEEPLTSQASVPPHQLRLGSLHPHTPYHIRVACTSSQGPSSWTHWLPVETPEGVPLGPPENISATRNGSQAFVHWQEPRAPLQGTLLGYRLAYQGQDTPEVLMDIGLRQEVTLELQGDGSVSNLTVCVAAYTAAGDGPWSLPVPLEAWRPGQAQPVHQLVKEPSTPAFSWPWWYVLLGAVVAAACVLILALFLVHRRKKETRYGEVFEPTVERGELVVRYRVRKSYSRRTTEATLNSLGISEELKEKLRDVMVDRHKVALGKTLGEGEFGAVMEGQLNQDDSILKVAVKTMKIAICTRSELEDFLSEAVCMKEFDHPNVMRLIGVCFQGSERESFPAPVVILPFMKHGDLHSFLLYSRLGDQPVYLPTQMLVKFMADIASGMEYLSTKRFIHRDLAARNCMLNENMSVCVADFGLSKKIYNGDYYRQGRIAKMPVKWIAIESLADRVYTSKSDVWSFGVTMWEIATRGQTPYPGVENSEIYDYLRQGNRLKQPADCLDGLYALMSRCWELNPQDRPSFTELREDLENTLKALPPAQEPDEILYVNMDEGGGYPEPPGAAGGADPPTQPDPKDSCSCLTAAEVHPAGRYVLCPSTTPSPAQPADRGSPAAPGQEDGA

BaF3/TEL-AXL cells = experiment: BaF3/TEL-AXL cell viability; format: cell-based; conditions: 48 h, read-out: IC50 Cell viability
[1] = Pharmacokinetics in ICR mice; format: in vivo; conditions: mouse, serum

Row | SMILES | inhibition at 0.1 µM (AXL kinase) | IC50 (AXL kinase) | IC50 (BaF3/TEL-AXL cells) | other results
1 | COc1cc2ncnc(Oc3ccc(NC(=O)c4c5n(n(-c6ccc(F)cc6)c4=O)CCCC5)cc3C)c2cc1OC [Compound 39] | 15.6% |  |  | 
2 | COc1cc2ncnc(Oc3ccc(NC(=O)c4c5n(n(-c6ccccc6)c4=O)CCCC5)c4ccccc34)c2cc1OC [Compound 52] | 41% |  |  | 
3 | COc1cc2ncnc(Oc3ccc(NC(=O)c4c5n(n(-c6ccccc6)c4=O)CCCC5)nc3)c2cc1OC [Compound 51] |  | 0.0168 ± 0.0035 µM | 0.0033 ± 0.0014 µM | 
4 | O=C(Nc1ccc(Oc2ccn3nccc3n2)cc1)c1c2n(n(-c3ccccc3)c1=O)CCCC2 [Compound 13] | -18.9% |  |  | 
5 | COc1cc2ncnc(Oc3ccc(NC(=O)c4c5n(n(-c6ccccc6)c4=O)CCCC5)cc3OC)c2cc1OC [Compound 41] | 56.4% |  |  | 
6 | COc1cc2ncnc(Oc3ccc(NC(=O)c4c5n(n(-c6cc(C)ccc6C)c4=O)CCCC5)cc3F)c2cc1OC [Compound 25] |  | 0.0784 ± 0.0021 µM |  | 
7 | COc1cc2ncnc(Oc3ccc(NC(=O)c4c5n(n(-c6ccccc6)c4=O)CCCC5)cc3C)c2cc1OC [Compound 37] | 23.2% |  |  | 
8 | COc1cc2nccc(Oc3ccc(NC(=O)c4c5n(n(-c6ccc(F)cc6F)c4=O)CCCC5)cc3)c2cc1OC [Compound 62] |  | < 0.01 µM and 0.0061 µM | 0.0007 ± 0.0003 µM | 
9 | COc1cc2ncnc(Oc3ccc(NC(=O)c4c5n(n(-c6ccc(F)cc6)c4=O)CCCC5)c(F)c3)c2cc1OC [Compound 31] |  | 0.0305 ± 0.0049 µM |  | 
10 | COc1cc2ncnc(Oc3ccc(NC(=O)c4c5n(n(-c6cc(F)ccc6F)c4=O)CCCC5)c(F)c3)c2cc1OC [Compound 32] |  | 0.037 ± 0.0014 µM |  | 
11 | COc1cc2ncnc(Oc3ccc(NC(=O)c4c5n(n(-c6ccccc6)c4=O)CCCC5)cc3F)c2cc1OC [Compound 16] |  |  | < 0.0001 µM | 
12 | COc1cc2ncnc(Oc3ccc(NC(=O)c4c5n(n(-c6ccccc6F)c4=O)CCCC5)cc3OC)c2cc1OC [Compound 42] | 28% |  |  | 
13 | COc1nc(OC)nc(Oc2ccc(NC(=O)c3c4n(n(-c5ccccc5)c3=O)CCCC4)cc2)n1 [Compound 14] | -6% |  |  | 
14 | COc1cc2ncnc(Oc3ccc(NC(=O)c4c5n(n(-c6cc(F)ccc6F)c4=O)CCCC5)c4ccccc34)c2cc1OC [Compound 55] | 50.4% |  |  | 
15 | COc1cc2ncnc(Oc3ccc(NC(=O)c4c5n(n(-c6ccc(F)cc6)c4=O)CCCC5)c4ccccc34)c2cc1OC [Compound 54] | 39% |  |  | 
16 | COc1cc2ncnc(Oc3ccc(NC(=O)c4c5n(n(-c6ccccc6F)c4=O)CCCC5)c4ccccc34)c2cc1OC [Compound 53] | 41.4% |  |  | 
17 | O=C(Nc1ccc(Oc2ccc3nncn3n2)cc1)c1c2n(n(-c3ccccc3)c1=O)CCCC2 [Compound 12] | -17.7% |  |  | 
18 | COc1cc2ncnc(Oc3ccc(NC(=O)c4c5n(n(-c6ccc(F)cc6)c4=O)CCCC5)cc3OC)c2cc1OC [Compound 43] | 19.9% |  |  | 
19 | COc1cc2ncnc(Oc3ccc(NC(=O)c4c5n(n(-c6ccc(F)cc6F)c4=O)CCCC5)cc3F)c2cc1OC [Compound 27] |  | 0.0251 ± 0.0016 µM |  | 
20 | COc1cc2ncnc(Oc3ccc(NC(=O)c4c5n(n(-c6cc(F)ccc6F)c4=O)CCCC5)cc3)c2cc1OC [Compound 50] |  |  | 0.0078 ± 0.0007 µM | 
21 | COc1cc2ncnc(Oc3ccc(NC(=O)c4c5n(n(-c6ccc(Cl)cc6)c4=O)CCCC5)cc3F)c2cc1OC [Compound 21] |  | 0.0426 ± 0.0062 µM |  | 
22 | COc1cc2ncnc(Oc3ccc(NC(=O)c4c5n(n(-c6ccccc6F)c4=O)CCCC5)cc3)c2cc1OC [Compound 49] | 47.9% |  |  | 
23 | COc1cc2nccc(Oc3ccc(NC(=O)c4c5n(n(-c6ccccc6)c4=O)CCCC5)cn3)c2cc1OC [Compound 58] | 50.9% |  |  | 
24 | COc1cc2ncnc(Oc3ccc(NC(=O)c4c5n(n(-c6ccccc6)c4=O)CCCC5)c(F)c3)c2cc1OC [Compound 29] |  | 0.01 ± 0.0014 µM | 0.0023 ± 0.0004 µM | 
25 | COc1cc2nccc(Oc3ccc(NC(=O)c4c5n(n(-c6cc(F)ccc6F)c4=O)CCCC5)cc3)c2cc1OC [Compound 60] |  | < 0.01 µM and 0.0012 µM | < 0.0002 µM | 
26 | COc1cc2ncnc(Oc3ccc(NC(=O)c4c5n(n(-c6ccccc6F)c4=O)CCCC5)cc3C)c2cc1OC [Compound 38] | 32.3% |  |  | 

Second part, led by results:

Row | inhibition at 0.1 µM (AXL kinase) | IC50 (AXL kinase) | IC50 (BaF3/TEL-AXL cells) | SMILES | other results
27 |  | 0.0196 ± 0.0019 µM |  | COc1cc2ncnc(Oc3ccc(NC(=O)c4c5n(n(-c6ccc(F)cc6)c4=O)CCCC5)cc3Cl)c2cc1OC [Compound 35] | 
28 |  | 0.0169 ± 0.0025 µM | 1.65 ± 0.444 µM | COc1cc2ncnc(Oc3ccc(NC(=O)c4c5n(n(-c6ccccc6)c4=O)CCCC5)cc3Cl)c2cc1OC [Compound 33] | 
29 |  | < 0.01 µM and 0.0007 µM | < 0.0002 µM | COc1cc2nccc(Oc3ccc(NC(=O)c4c5n(n(-c6cc(F)ccc6Cl)c4=O)CCCC5)cc3)c2cc1OC [Compound 61] | 
30 | 35.7% |  |  | COc1cc2ncnc(Oc3ccc(NC(=O)c4c5n(n(-c6cc(F)ccc6F)c4=O)CCCC5)cc3C)c2cc1OC [Compound 40] | 
31 |  |  | < 0.0001 µM | COc1cc2ncnc(Oc3ccc(NC(=O)c4c5n(n(-c6ccc(F)cc6)c4=O)CCCC5)cc3F)c2cc1OC [Compound 19] | 
32 |  | 0.004 ± 0.0004 µM | 0.001 ± 0.0002 µM | COc1cc2nccc(Oc3ccc(NC(=O)c4c5n(n(-c6ccccc6)c4=O)CCCC5)cc3)c2cc1OC [Compound 56] | 
33 |  |  | < 0.0001 µM | COc1cc2ncnc(Oc3ccc(NC(=O)c4c5n(n(-c6ccccc6F)c4=O)CCCC5)cc3F)c2cc1OC [Compound 17] | 
34 |  |  | < 0.0001 µM | COc1cc2ncnc(Oc3ccc(NC(=O)c4c5n(n(-c6cc(F)ccc6F)c4=O)CCCC5)cc3F)c2cc1OC [Compound 24] | AUC(0-inf) ([1]; iv, 5 mg/kg): 49.1 µg·h/mL; AUC(0-t) ([1]; iv, 5 mg/kg): 48.9 µg·h/mL; clearance ([1]; iv, 5 mg/kg): 0.102 L/h/kg; half-life ([1]; iv, 5 mg/kg): 3.38 h; AUC(0-inf) ([1]; po, 10 mg/kg): 14.2 µg·h/mL; AUC(0-t) ([1]; po, 10 mg/kg): 13.5 µg·h/mL; Cmax ([1]; po, 10 mg/kg): 1.49 µg/mL; Tmax ([1]; po, 10 mg/kg): 2 h; bioavailability ([1]; po, 10 mg/kg): 13.8%; half-life ([1]; po, 10 mg/kg): 6.77 h
35 |  | 0.0273 ± 0.0026 µM |  | COc1cc2ncnc(Oc3ccc(NC(=O)c4c5n(n(-c6ccc(C)cc6)c4=O)CCCC5)cc3F)c2cc1OC [Compound 23] | 
36 |  |  | < 0.0001 µM | COc1cc2nccc(Oc3ccc(NC(=O)c4c5n(n(-c6ccccc6)c4=O)CCCC5)cc3F)c2cc1OC [Compound 57] | 
37 |  | 0.0134 ± 0.0008 µM | < 0.0001 µM | COc1cc2ncnc(Oc3ccc(NC(=O)c4c5n(n(-c6ccccc6F)c4=O)CCCC5)c(F)c3)c2cc1OC [Compound 30] | 
38 | 59.4% |  |  | COc1cc2ncnc(Oc3ccc(NC(=O)c4c5n(n(-c6ccccc6)c4=O)CCCC5)cc3C(F)(F)F)c2cc1OC [Compound 45] | 
39 |  | < 0.01 µM and 0.0023 µM | < 0.0002 µM | COc1cc2nccc(Oc3ccc(NC(=O)c4c5n(n(-c6ccc(F)cc6Cl)c4=O)CCCC5)cc3)c2cc1OC [Compound 63] | 
40 |  | 0.0157 ± 0.0017 µM | 0.0076 ± 0.0041 µM | COc1cc2ncnc(Oc3ccc(NC(=O)c4c5n(n(-c6ccccc6C)c4=O)CCCC5)cc3F)c2cc1OC [Compound 22] | 
41 |  | 0.0309 ± 0.0014 µM |  | COc1cc2ncnc(Oc3ccc(NC(=O)c4c5n(n(-c6ccccc6F)c4=O)CCCC5)cc3Cl)c2cc1OC [Compound 34] | 
42 |  | 0.0105 ± 0.0005 µM | 0.007 ± 0.0042 µM | COc1cc2ncnc(Oc3ccc(NC(=O)c4c5n(n(-c6ccccc6Cl)c4=O)CCCC5)cc3F)c2cc1OC [Compound 20] | 
43 |  | 0.0066 ± 0.0029 µM | 3.63 ± 0.494 µM | COc1cc2ncnc(Oc3ccc(NC(=O)c4c5n(n(-c6cc(F)ccc6F)c4=O)CCCC5)cc3Cl)c2cc1OC [Compound 36] | 
